Reference: publication PMC11730078, “Virtual screening and evaluation of bioactive peptides from Haliotis discus hannai as potential HMGCR inhibitors for hyperlipidemia treatment” (Frontiers in Nutrition, 2024)

How the values were obtained:
high-fat Hep-G2 cells [1] = experiment: TC content in FFAs-induced high-fat Hep-G2 cells; type: cell-based; settings: 24 h; for TC level in high-fat Hep-G2 cells, dose effect: peptide 50, 100, 200, 400 μM with FFAs
Description: Cells grown to the log phase were digested, gently mixed using a pipette, and collected via centrifugation. The cells were then resuspended in a culture medium and homogenized using a pipette. A hemocytometer was used to count the cells diluted to 2 × 10^5/mL using a complete medium. Then, 250 μL of the cell suspension was pipetted into a 48-well cell culture plate for incubation in a CO2 incubator at 37°C for 14–16 h. […] Control groups were performed without peptides or FFAs. The model groups were treated with FFAs only, without peptides. Next, the cells were washed with DPBS and lysed for 45 min on ice using 1.5% Triton-X100. TC, TG, HDL-C, and LDL-C levels were determined using Nanjing Jiancheng assay kits.

[2] = test system: HMG-CoA reductase (HMGCR); experiment: HMG-CoA reductase inhibitory activity (HMG-CoA Reductase Assay Kit, Abcam ab204701); type: biochemical; settings: 1 mM peptide, 0.5 mM Atorvastatin as positive control, OD340, 37°C, mean ± SD, three biological replicates, Figure 3B
Description: The HMG-CoA reductase inhibitory activities were determined using the HMG-CoA Reductase Assay Kit (Abcam, ab204701) as previously described ([19]). Enzyme activity was measured by monitoring the decrease in absorbance at 340 nm and 37°C, following the manufacturer’s instructions. The reaction mix consisted of a mixture of HMG-CoA:NADPH:HMG-CoA reductase buffer assay (12:4:174; 190 μL). In a 96-well flat-bottomed microtiter plate, 5 μL of HMG-CoA reductase, 2 μL of inhibitor, and 3 μL of buffer were mixed. The addition of 190 μL of reaction mix marked the initiation of the enzyme reaction. OD340 was measured for 10 min at 2-min intervals at 37°C.
HMGCR inhibition rate (%)=−ΔA340nm/ΔTEnzyme−−ΔA340nm/ΔTEnzyme+Inhubitor/−ΔA340nm/ΔTEnzyme×100.

high-fat Hep-G2 cells [3] = experiment: TG content in FFAs-induced high-fat Hep-G2 cells; type: cell-based; settings: 400 μM peptide with FFAs, 24 h; for TG content in high-fat Hep-G2 cells: mean ± SD, three biological replicates, Figure 4C, SD
Description: Cells grown to the log phase were digested, gently mixed using a pipette, and collected via centrifugation. The cells were then resuspended in a culture medium and homogenized using a pipette. A hemocytometer was used to count the cells diluted to 2 × 10^5/mL using a complete medium. Then, 250 μL of the cell suspension was pipetted into a 48-well cell culture plate for incubation in a CO2 incubator at 37°C for 14–16 h. After reaching 80–90% confluency, cells were incubated with peptides (50, 100, 200, or 400 μM) and FFAs (10% oleic acid and palmitic acid) for 24 h. Control groups were performed without peptides or FFAs. The model groups were treated with FFAs only, without peptides. Next, the cells were washed with DPBS and lysed for 45 min on ice using 1.5% Triton-X100. TC, TG, HDL-C, and LDL-C levels were determined using Nanjing Jiancheng assay kits.

[4] = Inhibition of cholesterol micelle solubility in vitro; settings: for Cholesterol micelle solubility inhibition rate: 1 mM peptide, micelles of 10 mM sodium taurocholate, 0.4 mM cholesterol, 1 mM oleic acid, pH 7.4, 37°C, 24 h, mean ± SD, three biological replicates, Figure 3C, SD; for Inhibition of cholesterol micellar solubility, comparison and dose trend: peptide 50, 100, 200, 400 μM, Figure 4D
Description: After sequence identification, the peptide sequences were obtained through solid-phase synthesis by GenScript (Nanjing, China). The inhibitory effect of the peptide on cholesterol micelle solubility was measured as previously described with some modifications ([18]). Micellar solutions (1 mL) contained 10 mM sodium taurocholate, 0.4 mM cholesterol, 1 mM oleic acid, 132 mM NaCl, and 15 mM sodium phosphate (pH 7.4). […] After mixing, the samples were ultrasonically emulsified at 37°C for 30 min and incubated on a shaker at 37°C for 24 h. The samples were centrifuged at 8,000 × g for 20 min, and a total cholesterol (T-CHO) assay kit (Jiancheng Bioengineering Institute, Nanjing, China) was used for measurement. The inhibitory effect of the peptide solution on cholesterol micelle solubility was calculated as follows: (1) Cholesterol micelle solubility inhibition rate() =C0−C1/C0×100 where C0 is the initial cholesterol concentration in the micelles, and C1 is the cholesterol concentration in the micelles after sample addition.

Substance | TC level in high-fat Hep-G2 cells, dose effect (high-fat Hep-G2 cells [1]; Figure 4B) | HMGCR inhibition rate [2] | Decrease of TG content compared with model group (high-fat Hep-G2 cells [3]) | TG content in high-fat Hep-G2 cells (high-fat Hep-G2 cells [3]) [mmol/gprot] | Cholesterol micelle solubility inhibition rate [4] | Inhibition of cholesterol micellar solubility, comparison and dose trend [4] | TC level in high-fat Hep-G2 cells compared with model group (high-fat Hep-G2 cells [1]; 400 μM peptide with FFAs, Figure 4B) | TC accumulation in high-fat Hep-G2 cells compared with model group (high-fat Hep-G2 cells [1]; peptide 1 mM with FFAs, Figure 3A)
APDMAFPR | not significant | 59.55% ± 0.46 | 34.86% ± 0.08 | 0.31 ± 0.04 | 35.87% ± 2.56 | weakest inhibitory effect | – | –
DYPRPW | the higher the concentration, the lower the TC level | 51.81% ± 0.70 | – | – | 37.29% ± 1.45 | superior inhibition rate | significantly lower than that in the model group | –
WFKTM [abalone viscera peptide, top 20 after virtual screening, synthesized by GenScript] | – | – | – | – | – | – | – | all peptides, except for WFKTM, alleviated TC accumulation
LPAYPMP | not significant | 54.65% ± 0.36 | – | – | 41.55% ± 5.48 | showed inhibition of cholesterol micellar solubility | – | –
QDAVMPNPF | not significant | – | 31.31% ± 0.10 | 0.33 ± 0.05 | 47.94% ± 0.58 | showed inhibition of cholesterol micellar solubility | – | –
SPADIGFH [abalone viscera peptide, top 20 after virtual screening, synthesized by GenScript] | – | 53.89% ± 3.89 | – | – | 45.23% ± 3.68 | – | – | –
